Results: US20250295646A1, “METHODS OF USE OF T-TYPE CALCIUM CHANNEL MODULATORS” (Praxis Precision Medicines, Inc., priority 2022, published 2025)

Tests used:
[1] = system: adult patients with essential tremor; test: Example 16: Patient Global Impression of Change (PGI-C); format: in vivo, human; details: for participants with PGI-C score minimally improved: Part A; for participants with PGI-C much improved / participants with PGI-C score reflecting no change in symptoms: Part B OLT
Text: (§2) Patients were scheduled for Safety Follow-up on Day 70 (±1 day) in the clinic for the final clinical trial assessment.

[2] = Within-participant escalating dose trial Part A (5-20 mg): pharmacokinetics; format: in vivo, human; details: single 5 mg dose, healthy volunteers
Experimental: (§1) In Part A, an open label trial was conducted.

[3] = Within-participant escalating dose trial Part A: safety and tolerability; format: in vivo, human; details: N = 8
Experimental: as §1

[4] = Example 16 Part B: treatment emergent adverse events, down-titration, discontinuation
Text: as §2

[5] = system: gamma band EEG power; test: qEEG: eyes open / eyes closed gamma band power; format: in vivo, human; details: Part B, beginning at 60 mg through 120 mg
Text: It appears a maximal effect in gamma reduction was not achieved.
The eyes open (EO) and eyes closed (EC) gamma absolute power for each individual was also estimated at specific time points across the study days.
The population PK model was used to generate Cave for NREM sigma absolute power and concentrations for EO and EC gamma absolute power. For NREM sigma absolute power, the Cave was computed for the final day of each dose level over the EEG collection interval. For EO and EC gamma absolute power, concentrations at 4 hours post-dose and 23.75 hours post-dose were generated on the final day of each dose level. The final population PKPD models for NREM sigma absolute power and EO and EC gamma absolute power were then used to generate corresponding EEG responses.

[6] = Part B RWD (RWAS), Day 56, n 6, change from randomization baseline
[7] = Part B Randomized Withdrawal (N = 11), arm (Formula (I) or placebo) not stated
[8] = Part B, reported by the same patient

In the case of `CC(C)(C)NC(=O)CN1CCC(CNC(=O)c2cc(F)cc(Cl)c2)CC1` [compound of formula (I), N-((1-(2-(tert-butylamino)-2-oxoethyl)piperidin-4-yl)methyl)-3-chloro-5-fluorobenzamide], the “PGI-C Score 1 very much improved” value ([1]; Part A (FAS), Day 7, n 6) is reported as 0 n (%), the “PGI-C Score 2 Much improved” value ([1]; Part A (FAS), Day 7, n 6) is reported as 1 n (%) and the “PGI-C Score 3 minimally improved” value ([1]; Part A (FAS), Day 7, n 6) is reported as 2 (33.3) n (%). For the same compound, the “PGI-C Score 4 no change” value ([1]; Part A (FAS), Day 7, n 6) was 2 (33.3) n (%), the “PGI-C Score 5 minimally worse” value ([1]; Part A (FAS), Day 7, n 6) was 0 n (%) and the “PGI-C Score 6 much worse” value ([1]; Part A (FAS), Day 7, n 6) was 1 (16.7) n (%). The “PGI-C Score 7 very much worse” value ([1]; Part A (FAS), Day 7, n 6) was 0 n (%), the “PGI-C Score 1 very much improved” value ([1]; Part A (FAS), Day 14, n 6) was 0 n (%) and the “PGI-C Score 2 Much improved” value ([1]; Part A (FAS), Day 14, n 6) was 1 n (%). For the same compound, the “PGI-C Score 3 minimally improved” value ([1]; Part A (FAS), Day 14, n 6) was 5 (83.3) n (%), the “PGI-C Score 4 no change” value ([1]; Part A (FAS), Day 14, n 6) was 0 n (%) and the “PGI-C Score 5 minimally worse” value ([1]; Part A (FAS), Day 14, n 6) was 0 n (%). The “PGI-C Score 6 much worse” value ([1]; Part A (FAS), Day 14, n 6) was 0 n (%), the “PGI-C Score 7 very much worse” value ([1]; Part A (FAS), Day 14, n 6) was 0 n (%) and the “participants with PGI-C score minimally improved” value ([1]; Day 7) was 33.3%. The “participants with PGI-C score minimally improved” value ([1]; Day 14) was 83.3%, the “PGI-C Score 1 very much improved” value ([1]; Part B OLT (FAS), Day 7, n 13) was 0 n (%) and the “PGI-C Score 2 Much improved” value ([1]; Part B OLT (FAS), Day 7, n 13) was 1 n (%). The “PGI-C Score 3 minimally improved” value ([1]; Part B OLT (FAS), Day 7, n 13) was 5 (38.5) n (%), the “PGI-C Score 4 no change” value ([1]; Part B OLT (FAS), Day 7, n 13) was 7 (53.8) n (%) and the “PGI-C Score 5 minimally worse” value ([1]; Part B OLT (FAS), Day 7, n 13) was 0 n (%). For the same compound, the “PGI-C Score 6 much worse” value ([1]; Part B OLT (FAS), Day 7, n 13) was 0 n (%), the “PGI-C Score 7 very much worse” value ([1]; Part B OLT (FAS), Day 7, n 13) was 0 n (%) and the “PGI-C Score 1 very much improved” value ([1]; Part B OLT (FAS), Day 21, n 12) was 0 n (%). The “PGI-C Score 2 Much improved” value ([1]; Part B OLT (FAS), Day 21, n 12) was 1 n (%), the “PGI-C Score 3 minimally improved” value ([1]; Part B OLT (FAS), Day 21, n 12) was 5 (41.7) n (%) and the “PGI-C Score 4 no change” value ([1]; Part B OLT (FAS), Day 21, n 12) was 6 (50.0) n (%). The “PGI-C Score 5 minimally worse” value ([1]; Part B OLT (FAS), Day 21, n 12) was 0 n (%), the “PGI-C Score 6 much worse” value ([1]; Part B OLT (FAS), Day 21, n 12) was 0 n (%) and the “PGI-C Score 7 very much worse” value ([1]; Part B OLT (FAS), Day 21, n 12) was 0 n (%). For the same compound, the “PGI-C Score 1 very much improved” value ([1]; Part B OLT (FAS), Day 42, n 11) was 0 n (%), the “PGI-C Score 2 Much improved” value ([1]; Part B OLT (FAS), Day 42, n 11) was 3 n (%) and the “PGI-C Score 3 minimally improved” value ([1]; Part B OLT (FAS), Day 42, n 11) was 4 (36.4) n (%). For the same compound, the “PGI-C Score 4 no change” value ([1]; Part B OLT (FAS), Day 42, n 11) was 4 (36.4) n (%), the “PGI-C Score 5 minimally worse” value ([1]; Part B OLT (FAS), Day 42, n 11) was 0 n (%) and the “PGI-C Score 6 much worse” value ([1]; Part B OLT (FAS), Day 42, n 11) was 0 n (%). The “PGI-C Score 7 very much worse” value ([1]; Part B OLT (FAS), Day 42, n 11) was 0 n (%), the “participants with PGI-C much improved” value ([1]; Day 7) was 7.7% and the “participants with PGI-C score reflecting no change in symptoms” value ([1]; Day 7) was 53.8%. For the same compound, the “participants with PGI-C much improved” value ([1]; Day 42) was 27.3%, the “participants with PGI-C score reflecting no change in symptoms” value ([1]; Day 42) was 36.4% and the “PGI-C Score 1 very much improved” value [1, 6] was 0 n (%). For the same compound, the “PGI-C Score 2 Much improved” value [1, 6] was 0 n (%), the “PGI-C Score 3 minimally improved” value [1, 6] was 2 (33.3) n (%) and the “PGI-C Score 4 no change” value [1, 6] was 3 (50.0) n (%). The “PGI-C Score 5 minimally worse” value [1, 6] was 0 n (%), the “PGI-C Score 6 much worse” value [1, 6] was 0 n (%) and the “PGI-C Score 7 very much worse” value [1, 6] was 1 (16.7) n (%). For the same compound, the “time by which plasma concentrations were quantifiable” value [2] was no more than 0.50 h, the Dry eye ([3]; 5 mg) was 1 (12.5%) n (%) and the Eye disorders ([3]; 5 mg) was 2 (25.0%) n (%). The “General Disorders and Administration Site Conditions” value ([3]; 5 mg) was 3 (37.5%) n (%), the Headache ([3]; 5 mg) was 2 (25.0%) n (%) and the Lethargy ([3]; 5 mg) was 1 (12.5%) n (%). For the same compound, the “Medical device site dermatitis” value ([3]; 5 mg) was 1 (12.5%) n (%), the “Nervous System Disorders” value ([3]; 5 mg) was 2 (25.0%) n (%) and the “Participants with at least one TEAE” value ([3]; 5 mg) was 5 (62.5%) n (%). For the same compound, the “Vessel puncture site thrombosis” value ([3]; 5 mg) was 1 (12.5%) n (%), the Dry eye ([3]; 10 mg) was 2 (25.0%) n (%) and the Eye disorders ([3]; 10 mg) was 2 (25.0%) n (%). The “General Disorders and Administration Site Conditions” value ([3]; 10 mg) was 3 (37.5%) n (%), the Headache ([3]; 10 mg) was 0 n (%) and the Lethargy ([3]; 10 mg) was 0 n (%). For the same compound, the “Medical device site dermatitis” value ([3]; 10 mg) was 2 (25.0%) n (%), the “Nervous System Disorders” value ([3]; 10 mg) was 0 n (%) and the “Participants with at least one TEAE” value ([3]; 10 mg) was 5 (62.5%) n (%). The “Vessel puncture site thrombosis” value ([3]; 10 mg) was 1 (12.5%) n (%), the Dry eye ([3]; 20 mg) was 0 n (%) and the Eye disorders ([3]; 20 mg) was 0 n (%). For the same compound, the “General Disorders and Administration Site Conditions” value ([3]; 20 mg) was 1 (12.5%) n (%), the Headache ([3]; 20 mg) was 1 (12.5%) n (%) and the “Medical device site dermatitis” value ([3]; 20 mg) was 0 n (%). The “Nervous System Disorders” value ([3]; 20 mg) was 1 (12.5%) n (%), the “Participants with at least one TEAE” value ([3]; 20 mg) was 3 (37.5%) n (%) and the “Vessel puncture site thrombosis” value ([3]; 20 mg) was 0 n (%). The Dry eye ([3]; Overall 5-20 mg) was 3 (37.5%) n (%), the Eye disorders ([3]; Overall 5-20 mg) was 3 (37.5%) n (%) and the Headache ([3]; Overall 5-20 mg) was 3 (37.5%) n (%). For the same compound, the Lethargy ([3]; Overall 5-20 mg) was 2 (25.0%) n (%), the “Medical device site dermatitis” value ([3]; Overall 5-20 mg) was 3 (37.5%) n (%) and the “Nervous System Disorders” value ([3]; Overall 5-20 mg) was 3 (37.5%) n (%). The “Participants with at least one TEAE” value ([3]; Overall 5-20 mg) was 7 (87.5%) n (%), the “Vessel puncture site thrombosis” value ([3]; Overall 5-20 mg) was 2 (25.0%) n (%) and the “TEAE associated with discontinuation: Confusional state” value ([4]; Part B) was 1. For the same compound, the “TEAE associated with discontinuation: Cyst” value ([4]; Part B) was 1, the “TEAE associated with discontinuation: Disturbance in attention” value ([4]; Part B) was 1 and the “TEAE leading to down titration: Confusional state” value ([4]; Part B) was 1. For the same compound, the “TEAE leading to down titration: Disturbance in attention” value ([4]; Part B) was 1, the “TEAE leading to down titration: Dizziness postural” value ([4]; Part B) was 1 and the “TEAE leading to down titration: Paraesthesia” value ([4]; Part B) was 1. For the same compound, the “TEAE leading to down titration: Somnolence” value ([4]; Part B) was 1, the “participants who discontinued administration” value ([4]; Part B) was “three of 14 participants” and the participants who down-titrated ([4]; Part B) was “Four of 14 participants”. For the same compound, the “TEAE Anxiety, participants” value ([4]; Part B Open Label (N = 14)) was 1, the “TEAE Cognitive Disorder, participants” value ([4]; Part B Open Label (N = 14)) was 1 and the “TEAE Constipation, participants” value ([4]; Part B Open Label (N = 14)) was 6. The “TEAE Dizziness, participants” value ([4]; Part B Open Label (N = 14)) was 4, the “TEAE Fatigue, participants” value ([4]; Part B Open Label (N = 14)) was 3 and the “TEAE Headache, participants” value ([4]; Part B Open Label (N = 14)) was 1. For the same compound, the “TEAE Insomnia, participants” value ([4]; Part B Open Label (N = 14)) was 2, the “TEAE Paraesthesia, participants” value ([4]; Part B Open Label (N = 14)) was 2 and the “TEAE Fatigue, participants” value [4, 7] was 1. The “TEAE Headache, participants” value [4, 7] was 1, the “dosing well-tolerated with titration” value ([4]; Part B, essential tremor patients) was “up to 120 mg” and the “TEAE associated with discontinuation: Gait disturbances” value [4, 8] was 1. For the same compound, the “TEAE associated with discontinuation: Hypotension” value [4, 8] was 1, the “TEAE associated with discontinuation: Muscle fatigue” value [4, 8] was 1 and the “TEAE associated with discontinuation: Speech disorder” value [4, 8] was 1.
For `CC(C)(C)NC(=O)CN1CCC(CNC(=O)c2cc(F)cc(Cl)c2)CC1.Cl` [compound of formula (II), N-((1-(2-(tert-butylamino)-2-oxoethyl)piperidin-4-yl)methyl)-3-chloro-5-fluorobenzamide hydrochloride], the “gamma band EEG power” value [5] was “dose-related reduction”.
